Results on eleven molecules are retold here after the Kinase Knowledgebase extract (Sharma et al. 2016).

The target in this test is EGFR (human) (UniProt P00533).
Chain of EGFR (human) (P00533 whole entry, looked up): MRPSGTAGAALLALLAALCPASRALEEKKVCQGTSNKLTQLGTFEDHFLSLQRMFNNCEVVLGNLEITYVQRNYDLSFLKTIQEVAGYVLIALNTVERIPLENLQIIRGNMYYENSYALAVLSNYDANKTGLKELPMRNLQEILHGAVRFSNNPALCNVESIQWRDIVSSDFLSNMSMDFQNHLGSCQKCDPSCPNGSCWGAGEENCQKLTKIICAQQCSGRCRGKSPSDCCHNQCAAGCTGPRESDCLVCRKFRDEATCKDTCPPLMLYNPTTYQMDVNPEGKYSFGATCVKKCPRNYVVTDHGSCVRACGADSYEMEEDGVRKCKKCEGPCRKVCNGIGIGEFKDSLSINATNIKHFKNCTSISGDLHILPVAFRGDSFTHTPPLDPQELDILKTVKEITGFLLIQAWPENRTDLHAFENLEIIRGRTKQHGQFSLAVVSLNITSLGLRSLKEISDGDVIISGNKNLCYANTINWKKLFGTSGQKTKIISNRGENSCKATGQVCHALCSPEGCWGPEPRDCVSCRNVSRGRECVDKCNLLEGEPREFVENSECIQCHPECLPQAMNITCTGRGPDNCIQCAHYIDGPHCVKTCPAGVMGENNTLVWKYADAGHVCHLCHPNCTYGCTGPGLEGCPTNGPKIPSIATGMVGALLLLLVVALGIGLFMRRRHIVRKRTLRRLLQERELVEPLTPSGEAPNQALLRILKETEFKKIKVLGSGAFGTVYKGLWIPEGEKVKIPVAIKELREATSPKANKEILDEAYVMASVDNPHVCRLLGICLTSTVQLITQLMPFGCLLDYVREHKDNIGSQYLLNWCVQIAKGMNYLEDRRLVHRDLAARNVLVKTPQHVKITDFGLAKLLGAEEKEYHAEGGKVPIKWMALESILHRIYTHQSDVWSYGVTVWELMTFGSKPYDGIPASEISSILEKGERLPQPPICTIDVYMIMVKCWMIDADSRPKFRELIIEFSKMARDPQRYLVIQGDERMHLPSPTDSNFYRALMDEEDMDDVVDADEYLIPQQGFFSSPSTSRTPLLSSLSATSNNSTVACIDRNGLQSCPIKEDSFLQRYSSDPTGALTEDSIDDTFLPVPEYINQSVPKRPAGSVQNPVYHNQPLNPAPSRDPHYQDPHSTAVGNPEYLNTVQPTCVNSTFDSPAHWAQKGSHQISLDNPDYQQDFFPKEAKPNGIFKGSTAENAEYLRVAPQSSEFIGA

As to `CC#CC(=NOCC(=O)NCCOS(C)(=O)=O)c1ccc2ncnc(Nc3ccc(COc4cccc(F)c4)c(Cl)c3)c2c1`, the IC50 (as a rule, the point on the concentration scale where inhibition reaches its midpoint) amounted to 0.047 µM. `CC#CC(=NOC[C@@H]1C[C@H](O)CN1)c1ccc2ncnc(Nc3ccc4c(cnn4Cc4cccc(F)c4)c3)c2c1` displayed an IC50 of 0.0097 µM. For `Fc1cccc(OCc2ccc(Nc3ncnc4ccc(C=NN5CCCCC5)cc34)cc2Cl)c1` the value was 0.193 µM.

In the case of `CC#CC(=NOCC(=O)NCCN(C)C)c1ccc2ncnc(Nc3ccc(COc4cccc(F)c4)c(Cl)c3)c2c1`, the IC50 is 0.02 µM. To `CC#CC(=NOCC(=O)NCCO)c1ccc2ncnc(Nc3ccc(COc4cccc(F)c4)c(Cl)c3)c2c1` belongs 0.122 µM; to `CC#CC(=NOC[C@H]1COCCN1)c1ccc2ncnc(Nc3ccc(OCc4cccc(F)c4)c(Cl)c3)c2c1`, 0.118 µM; to `CN(N=Cc1ccc2ncnc(Nc3ccc(COc4cccc(F)c4)c(Cl)c3)c2c1)c1ccccc1`, 0.426 µM. As to `C#CCN1CCC[C@H]1CON=C(C#CC)c1ccc2ncnc(Nc3ccc(OCc4cccc(F)c4)c(Cl)c3)c2c1`, the IC50 was 0.275 µM. This IC50 is about 1.5-fold lower than that of the molecule before. For `COC[C@@H]1CCCN1N=Cc1ccc2ncnc(Nc3ccc(COc4cccc(F)c4)c(Cl)c3)c2c1` the value was 0.344 µM; for `CC#CC(=NOC[C@@H]1COCCN1)c1ccc2ncnc(Nc3ccc(OCc4ccccn4)c(Cl)c3)c2c1`, 0.0062 µM; for `CC#CC(=NOC[C@@H]1COCCN1)c1ccc2ncnc(Nc3ccc(OCc4cccc(F)c4)c(Cl)c3)c2c1`, 0.101 µM.
